Source: patent publication US20250114369A1, “COMPOUNDS AND METHODS FOR TREATMENT OF VIRAL INFECTIONS” (Gilead Sciences, Inc., priority 2023, published 2025)
≈ marks a conversion by molar mass, not a printed value.

Legend:
[1] = tested on: SARS Coronavirus 2 recombinant with NanoLuc (SARS-CoV2-NLuc); test: organism not typed; format: cell-based; conditions: 48 h
[2] = in vitro; format: cell-based; conditions: human
Experimental: Cytotoxicity of the compounds was determined in uninfected cells using the cell viability reagent in a similar fashion as described before for other cell types (Cihlar et al., Antimicrob Agents Chemother. 2008, 52(2):655-65). HEp-2 (1.5×10^3 cells/well) and MT-4 (2×10^3 cells/well) cells were plated in 384-well plates and incubated with the appropriate medium containing 3-fold serially diluted compound ranging from 15 nM to 100,000 nM. Cells were cultured for 4-5 days at 37° C. Following the incubation, the cells were allowed to equilibrate to 25° C., and cell viability was determined by adding Cell-Titer Glo viability reagent. The mixture was incubated for 10 min, and the luminescence signal was quantified using an Envision plate reader. Untreated cell and cells treated at 2 μM puromycin (Sigma, St. Louis, MO) serve as […] cell viability control, respectively. The percent of cell viability was calculated for each tested compound concentration relative to the 0% and 100% controls and the CC50 value was determined by non-linear regression as a compound concentration reducing the cell viability by […].

[3] = physchem; format: physicochemical; conditions: pH 7, aqueous buffer, thermodynamic from solid
Experimental: The aqueous solubility of compounds over a time of 24 hours was assessed. Solubility was determined at ambient temperature in a 50 mM phosphate buffered pH7 solution with 150 mM NaCl (to achieve isotonicity). Solids were added to the buffered solution in 1.5-mL Eppendorf tubes, vortexed for 1 minute, then agitated for 24 hours in an Eppendorf ThermoMixer C. To determine concentration in solution, the suspensions were centrifuged for 15 min at 15,000 rpm. Supernatants were diluted to a volume of 1 mL with 30:70 v/v acetonitrile:water. All diluted supernatants were analyzed by UPLC using a Waters Acquity UPLC with a PDA UV detector.

[4] = in vitro; format: in vitro ADME; conditions: human, s9, pH 7.4
Experimental: Duplicate aliquots of test compound or positive control substrate (GS-7340) were added to PMSF-free Intestinal S9 fractions diluted with 100 mM phosphate buffered saline, pH 7.4, to obtain a protein concentration of 1.0 mg/mL. The S9 metabolic reactions were initiated by the addition of the substrates to the S9 reaction mixture to a final concentration of 2 μM. At 0, 10, 20, 30, 60 and 120 min, 25 μL aliquots of the reaction mixture were transferred to plates containing 225 μl of IS/Q solution. After quenching, the plates were centrifuged at 3000×g for 30 minutes, and 150 μL aliquots of each supernatant were diluted with 150 μL water. Aliquots (10 μL) of the diluted supernatant were analyzed on a Thermo Q-Exactive mass spectrometer as described below. Quantification of test compounds and controls was performed by analyte/internal standard peak area ratio (PAR) values measured on a Thermo Q-Exactive mass spectrometer coupled to a Dionex UltiMate 3000 HPLC with a Leap Technologies HTC PAL autosampler. The column used was a Thermo Hypersil GOLD (1.9 μm particle size, 2.1×50 mm). Mobile phase A consisted of […] formic acid in water. Mobile phase B consisted of 0.1% (v/v) formic acid in acetonitrile. Elution of analytes was achieved by a series of linear gradients of acetonitrile in water containing 0.1% (v/v) formic acid. The mass spectrometer was calibrated on a weekly basis and mass tolerance of 5 ppm was used.

[5] = tested on: Respiratory syncytial virus recombinant with luciferase (RSV-Luc5); test: microbe, parasite or virus in culture; format: cell-based; conditions: human respiratory syncytial virus, NHBE, 72 h, read-out: RSV NHBE EC50 (nM)
[6] = tested on: Caco-2 cells (clone C2BBel); test: CACO-2 permeability; format: in vitro ADME; conditions: donor pH 6.5, receiver pH 7.4; for DM Caco2 A to B: forward (A to B); for DM Caco2 B to A: reverse (B to A)
Experimental: Pre-plated Caco-2 cells (clone C2BBel) were obtained from Sigma-Aldrich, Inc. (Atlanta, GA). Cell monolayers were grown to confluence on collagen-coated, microporous, polycarbonate membranes in 24-well transwell plates for 21 days. The permeability assay buffer in donor wells was Hanks' balanced salt solution (HBSS) containing 10 mM HEPES and 15 mM glucose at a pH of 6.5 containing 200 μM BNPP. The receiver wells used HBSS buffer containing 10 mM HEPES and 15 mM glucose at a pH of 7.4 and supplemented with 1% BSA. After an initial equilibration with transport buffer, TEER values were read to test membrane integrity. The experiment was started by the addition of buffers containing test compounds, 200 μl and 1000 μl in the apical and basolateral chamber, respectively. At 0- and 2-hour post dose, 10 μL was sampled from donor compartment and was immediately diluted in 190 μL of 20% methanol. At 1 and 2 hours post dose, 100 μl of solution was taken from the receiver compartments and was immediately diluted in 100 μl of 20% methanol. Removed buffer was replaced with fresh buffer and a correction was applied to all calculations for the removed material. Each compound was tested in 2 separate replicate wells for each condition. All samples were then extracted with 400 μl 100% acetonitrile with internal standard to precipitate protein. Cells were dosed on the apical or basolateral side to determine forward (A to B) and reverse (B to A) permeability. To test for non-specific binding and compound instability, the total amount of drug was quantitated at the end of the experiment and compared to the material present in the original dosing solution as a percent recovery. Formation of the parent compound (GS-441524; Reference Compound A) was monitored in assay wells dosed with the prodrug. Samples were analyzed by LC-MS/MS.

[7] = format: in vitro ADME; conditions: 2 μM
Experimental: Duplicate aliquots of plasma were warmed to 37° C. and the metabolic reactions initiated by the addition of test compound (6 μL of 0.1 mM DMSO stock) or plasma stability standard (GS-7340) to obtain a final substrate concentration of 2 μM. At 0.05, 0.5, 1, 2, 3 and 4 hr, 25 μL aliquots of the reaction mixture were transferred to plates containing 225 μl of IS/Q quenching solution. After quenching, the plates were centrifuged at 3000×g for 30 minutes, and 150 μL supernatant was diluted with 150 μL water. Aliquots (10 μL) of the diluted supernatant were analyzed on a Thermo Q-Exactive mass spectrometer as described below. Quantification of test compounds and controls was performed by analyte/internal standard peak area ratio (PAR) values measured on a Thermo Q-Exactive mass spectrometer coupled to a Dionex UltiMate 3000 HPLC with a Leap Technologies HTC PAL autosampler. The column used was a Thermo Hypersil GOLD (1.9 μm particle size, 2.1×50 mm). Mobile phase A consisted of […] formic acid in water. Mobile phase B consisted of 0.1% (v/v) formic acid in acetonitrile. Elution of analytes was achieved by a series of linear gradients of acetonitrile in water containing 0.1% (v/v) formic acid. The mass spectrometer was calibrated on a weekly basis and mass tolerance of 5 ppm was used.

[8] = in vitro; format: in vitro ADME; conditions: human, s9, pH 7.4; remark: listed apart in the source
Experimental: Duplicate aliquots of test compound or positive control substrate (GS-7340) were added to S9 stock diluted with 100 mM potassium phosphate buffer, pH 7.4, to obtain a protein concentration of 2.4 mg/mL. The S9 metabolic reactions were initiated by the addition of the substrates to the S9 reaction mixture to a final concentration of 2 μM. At 2, 12, 25, 45, 65 and 90 min, 25 μL aliquots of the reaction mixture were transferred to plates containing 225 μl of IS/Q solution. After quenching, the plates were centrifuged at 3000×g for 30 minutes, and 150 μL aliquots of each supernatant were diluted with 150 μL water. Aliquots (10 μL) of the diluted supernatant were analyzed on a Thermo Q-Exactive mass spectrometer as described below. Quantification of test compounds and controls was performed by analyte/internal standard peak area ratio (PAR) values measured on a Thermo Q-Exactive mass spectrometer coupled to a Dionex UltiMate 3000 HPLC with a Leap Technologies HTC PAL autosampler. The column used was a Thermo Hypersil GOLD (1.9 μm particle size, 2.1×50 mm). Mobile phase A consisted of […] formic acid in water. Mobile phase B consisted of 0.1% (v/v) formic acid in acetonitrile. Elution of analytes was achieved by a series of linear gradients of acetonitrile in water containing 0.1% (v/v) formic acid. The mass spectrometer was calibrated on a weekly basis and mass tolerance of 5 ppm was used.
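Throughout, for CC50: uninfected MT-4 cells over 4-5 days by CellTiter-Glo.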

Structure (SMILES)	EC50 [1] [µM]	CC50 [2] [µM]	solubility thermodynamic at 24 h [3] [µg/mL]	half-life at 2 μM [4] [min]	EC50 [5] [nM]	DM Caco2 A to B [6]	DM Caco2 B to A [6]	STA Human Plasma 37 [7]	half-life at 2 μM [8] [min]
COC(=O)c1cn(C(=O)OC[C@H]2O[C@@](C#N)(c3ccc4c(N)ncnn34)[C@H](O)[C@@H]2O)c2ccccc12 [Compound 1, O1-[[(2R,3S,4R,5R)-5-(4-aminopyrrolo[2,1-f][1,2,4]triazin-7-yl)-5-cyano-3,4-dihydroxy-tetrahydrofuran-2-yl]methyl]O3-methyl indole-1,3-dicarboxylate]	4.73	> 50	100 (≈ 203 µM)	123	5590	0.69	12.34	645.34	
N#C[C@@]1(c2ccc3c(N)ncnn23)O[C@H](COC(=O)n2cc(C(=O)OC3CCOCC3)c3ccccc32)[C@@H](O)[C@H]1O [Compound 2, O1-[[(2R,3S,4R,5R)-5-(4-aminopyrrolo[2,1-f][1,2,4]triazin-7-yl)-5-cyano-3,4-dihydroxy-tetrahydrofuran-2-yl]methyl]O3-tetrahydropyran-4-yl indole-1,3-dicarboxylate]	5.52	> 50	140 (≈ 249 µM)	476	14100	0.33	13.49	1055.4	
CC(C)NC(=O)OC[C@H]1O[C@@](C#N)(c2ccc3c(N)ncnn23)[C@H](O)[C@@H]1O [Compound 8, [(2R,3S,4R,5R)-5-(4-aminopyrrolo[2,1-f][1,2,4]triazin-7-yl)-5-cyano-3,4-dihydroxy-tetrahydrofuran-2-yl]methyl N-isopropylcarbamate]	31.9	> 50	> 13000	784	> 50000	0.11	0.79		≥ 592
N#C[C@@]1(c2ccc3c(N)ncnn23)O[C@H](COC(=O)N2CCCCC2)[C@@H](O)[C@H]1O [Compound 13, [(2R,3S,4R,5R)-5-(4-aminopyrrolo[2,1-f][1,2,4]triazin-7-yl)-5-cyano-3,4-dihydroxy-tetrahydrofuran-2-yl]methyl piperidine-1-carboxylate]	> 50	> 50	4480 (≈ 11100 µM)	≥ 789	> 50000	0.3	6.39	1584	≥ 592
CC(=O)O[C@H]1[C@@H](OC(C)=O)[C@](C#N)(c2ccc3c(N)ncnn23)O[C@@H]1COC(=O)N1CCCCCCC1 [Compound 19, [(2R,3R,4R,5R)-3,4-diacetoxy-5-(4-aminopyrrolo[2,1-f][1,2,4]triazin-7-yl)-5-cyano-tetrahydrofuran-2-yl]methyl azocane-1-carboxylate]	31.5	> 50	110 (≈ 214 µM)	0.764	18000	6.33	13.32	14.703	≤ 2
CCOC(=O)c1cccn1C(=O)OC[C@H]1O[C@@](C#N)(c2ccc3c(N)ncnn23)[C@H](OC(C)=O)[C@@H]1OC(C)=O [Compound 20, O1-[[(2R,3R,4R,5R)-3,4-diacetoxy-5-(4-aminopyrrolo[2,1-f][1,2,4]triazin-7-yl)-5-cyano-tetrahydrofuran-2-yl]methyl]O2-ethyl pyrrole-1,2-dicarboxylate]	4.28	> 50	10 (≈ 18.5 µM)	0.627	731	3.16	9.63	67.544	≤ 2
CC(=O)O[C@H]1[C@@H](OC(C)=O)[C@](C#N)(c2ccc3c(N)ncnn23)O[C@@H]1COC(=O)N1CCCCC1 [Compound 21, [(2R,3R,4R,5R)-3,4-diacetoxy-5-(4-aminopyrrolo[2,1-f][1,2,4]triazin-7-yl)-5-cyano-tetrahydrofuran-2-yl]methyl piperidine-1-carboxylate]	> 50	> 50	370 (≈ 761 µM)	0.673	> 50000	3.99	19.68	11.334	≤ 2
